# Test results as given in US20250346588A1, “IMIDAZOPYRIDINE AND OXAZOLOPYRIDINE DERIVATIVES AND ANALOGS THEREOF, METHODS OF PREPARATION THEREOF, METHODS OF HIF-1/2A PATHWAY INHIBITION, AND INDUCTION OF FERROPTOSIS” (KUDA THERAPEUTICS, INC., priority 2022, published 2025).
# Assays:
# [1] = tested on: HIF-2α Iron-Responsive Element (IRE); assay: HIF-2α IRE-Luc reporter assay; format: cell-based, human; details: 786-0 cells stably expressing HIF-2α IRE-Luc, 24h
# Description: Screens for inhibitory activity of compounds described herein were performed using 786-0 ccRCC cells that stably express HRE-Luc: 5 copies of the hypoxia-responsive element (HRE) fused to the pGL3 luciferase reporter (Promega Corp, Madison WI). 786-0 cells are pVHL deficient and thus constitutively express HIF-2α independently of cellular oxygen tension. Since 786-0 cells lack HIF-1α, HRE-driven luciferase activity is primarily HIF-2α driven, and has been previously validated. Cells were maintained at log phase growth in […] (DMEM) with 10% FBS in a humidified incubator at 37° C. with 5% CO2. For screening assays, cells were seeded at a density of 4,000 cells in 50 μl of complete media/well in quadruplicate wells/point in a 96-well plate. After 24 h, 50 μl of a 2× concentration of test compound was added to each well. […] After 24 h treatment, luciferase activity was measured using the Steady-Glo Luciferase assay system (Promega Corp) according to the manufacturer's protocol. Cell viability was measured in quadruplicate parallel wells using resazurin as recommended by the manufacturer (R&D systems, Minneapolis, MN). […] Representative data determined using Steady-Glo luciferase and resazurin are shown in FIGS. 1A and 1B respectively, with error bars showing SD. […]
# [2] = tested on: RCC4 or 786-0 cells±pVHL re-expression; assay: Cell viability with pVHL re-expression; format: cell-based, human; details: 48h
# 786-0 cells = assay: Resazurin cell viability assay, with or without DFO and other inhibitors; format: cell-based, human
# Description: Screens for inhibitory activity of compounds described herein were performed using 786-0 ccRCC cells that stably express HRE-Luc: 5 copies of the hypoxia-responsive element (HRE) fused to the pGL3 luciferase reporter (Promega Corp, Madison WI). 786-0 cells are pVHL deficient and thus constitutively express HIF-2α independently of cellular oxygen tension. Since 786-0 cells lack HIF-1α, HRE-driven luciferase activity is primarily HIF-2α driven, and has been previously validated. Cells were maintained at log phase growth in […] (DMEM) with 10% FBS in a humidified incubator at 37° C. with 5% CO2. For screening assays, cells were seeded at a density of 4,000 cells in 50 μl of complete media/well in quadruplicate wells/point in a 96-well plate. After 24 h, 50 μl of a 2× concentration of test compound was added to each well. Compounds were diluted from a 5-10 mM stock in DMSO and final concentrations of DMSO in each well in controls and treated wells were kept constant at ≤0.6% DMSO. After 24 h treatment, luciferase activity was measured using the Steady-Glo Luciferase assay system (Promega Corp) according to the manufacturer's protocol. Cell viability was measured in quadruplicate parallel wells using resazurin as recommended by the manufacturer (R&D systems, Minneapolis, MN). Data for luciferase and resazurin were normalized to DMSO treated controls (defining 100%) and wells containing assay reagent but no cells (defining 0%) and graphed using the log inhibitor versus normalized response option in Graphpad Prism 9.3.1 software. Representative data determined using Steady-Glo luciferase and resazurin are shown in FIGS. 1A and 1B respectively, with error bars showing SD. Filled diamonds, empty squares and empty triangles indicate treatment with 3, 8 and 22 respectively with results for HRE-Luc shown in FIG. 1A.
# In view of the increased cellular iron concentrations induced by the compounds described herein, the involvement of iron in mediating cell death was determined. Cell viability assays were performed as described in Example 2 using resazurin as a cell viability readout and performed in the absence or presence of 100 μM of the iron chelator, DFO (D9533, MilliporeSigma, St Louis, MO). […] Viability IC50 values are shown in brackets.
# Bioavailability studies = format: in vivo; details: mouse, in vivo, Swiss albino mice
# 786-0 ccRCC cells = assay: ICP-MS of cellular iron, zinc and copper; format: cell-based, human; details: 786-0 cells, 2.5 μM compound
# Description: These studies were performed to determine the content of iron and other transition metals in cells after exposure the compounds described herein. 786-0 cells were seeded at 1.5 million cells/flask in T75 cm^2 flasks in DMEM+10% FBS, and allowed to adhere overnight. Cells were then treated with indicated concentrations of compounds in DMSO or DMSO alone (vehicle) for a further 24 h, after which cells were detached by trypsinization, counted, washed twice in phosphate-buffered saline (PBS) and pelleted. Experiments were performed using three replicate T75 cm^2 flasks per condition. A 5:1 mixture of nitric acid (OPTIMA Grade, 70%, Fisher Scientific) and ultrapure hydrogen peroxide (ULTREX II, 30%, Fisher Scientific) was added to cell pellets. This mixture was allowed to digest overnight, heated until dry, and resuspended in 2% nitric acid for analysis using an Agilent 7900 ICP-MS (Agilent Technologies, Santa Clara, CA). Calibration standard solutions for determination of Fe were prepared from Agilent multi-element calibration standard-2A. An Agilent Environmental Calibration Standard was used as an independent control. PBS-only control digestions were used to measure background. Metal readings were normalized to cell number. Data obtained from these studies for three replicate readings (with SEM) are shown in FIG. 3, which show an increase in cellular iron (Fe) content after treatment with indicated compounds.
structure (smiles),measurement,setting,value
"COc1ccc(-c2nnc(Nc3nc4c(OC)nccc4[nH]3)o2)cc1OC [Compound 26HCL, N-(4-Methoxy-1H-imidazo[4,5-c]pyridin-2-yl)-5-(3,4-dimethoxyphenyl)-1,3,4-oxadiazol-2-amine]",effect on IRE-luciferase reporter activity normalized to resazurin,[1],decrease IRE-mediated translation of HIF-2α
same,effect of pVHL re-expression on cell viability response to compound,[2],re-expression of pVHL promotes resistance
same,mechanism of cell death,"786-0 cells; 24h, co-treatment with DFO, NAC, liproxstatin or ZVAD-FMK",iron-oxidant dependent and apoptosis/caspase-independent mechanism of cell death
same,effect of DFO co-treatment on compound-mediated loss of cell viability,"786-0 cells; DFO 100 μM, FIG. 4B",protective effects of DFO
same,bioavailability,"Bioavailability studies; oral, read-out: Bioavailability F",27.3%
same,half-life,Bioavailability studies; read-out: half-life (converted),3.61 h
same,"cellular iron (Fe), zinc (Zn) and copper (Cu) content",786-0 ccRCC cells,"increases the content of iron, zinc and copper in cells"
